{"source": "ChEMBL document CHEMBL5726901", "about": "“Heterocyclic inhibitors of PTPN11” (2019)", "experiment": "pERK AlphaScreen Protocol: KYSE-520 cells (10 k cells/well) were grown in 384-well plate in 20 uL of medium (RPMI-1640, without phenol red, containing 10% FBS) at 37° C. with 5% CO2 overnight. DMSO (control) or increasing concentrations of compounds were diluted in medium, added to the 384-well plate (5 uL/well, final DMSO concentration of 1%), and cells were then incubated with compounds for 2 hr. Phospho-ERK levels were measured using phospho-ERK1/2 AlphaScreen SureFire (PerkinElmer, TGRESB10K) following manufacturer's recommendations. Dose-response curves were analyzed using IC50 regression curve fitting (GeneData Screener). Curves were normalized to a high control without inhibitor (DMSO only), and low control (1 μM selumetinib).", "settings": "KYSE-520, 2 h", "data": [{"smiles": "COc1ccc(CNc2nccc(C(=O)c3ncc(N4CCC(C)([C@@H](C)N[S+]([O-])C(C)(C)C)CC4)nc3Cl)c2Cl)cc1", "note": "(some centres not stated)", "values": [{"measurement": "IC50", "value": 100, "unit": "nM"}]}, {"smiles": "CC1(N)CCN(c2cnc3c(-c4cc(N)ccc4Cl)n[nH]c3n2)CC1", "values": [{"measurement": "IC50", "value": 406, "unit": "nM"}]}]}
